Results from publication PMC12137978, “Design, molecular characterization and therapeutic investigation of a novel CCR8 peptide antagonist that attenuates acute liver injury by inhibiting infiltration and activation of macrophages” (Acta Pharmaceutica Sinica. B, 2025).
Where no end group is shown, it is not given here.

T1: CCR8 on LPS/IFNγ-activated RAW264.7 macrophages (Mus musculus, UniProt P56484)
T1 construct: endogenous in cells
T1 sequence (P56484 1-353): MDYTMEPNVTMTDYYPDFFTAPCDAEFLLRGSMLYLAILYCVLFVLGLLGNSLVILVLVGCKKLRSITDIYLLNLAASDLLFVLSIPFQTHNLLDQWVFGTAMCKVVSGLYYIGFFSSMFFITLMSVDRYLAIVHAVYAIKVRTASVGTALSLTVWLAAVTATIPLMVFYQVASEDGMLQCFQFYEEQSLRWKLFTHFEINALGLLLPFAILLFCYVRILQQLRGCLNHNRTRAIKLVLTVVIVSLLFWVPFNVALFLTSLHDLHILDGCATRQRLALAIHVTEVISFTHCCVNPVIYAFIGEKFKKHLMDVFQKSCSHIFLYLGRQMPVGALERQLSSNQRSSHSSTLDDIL

B1: CCL1: Human Recombinant I-309 (CCL1), CCR8 ligand (300-37-B, Tebu-bio) (protein, UniProt P22362 24-96, looked up)
C-C motif chemokine 1: KSMQVPFSRCCFSFAEQEIPLRAILCYRNTSSICSNEGLIFKLKRGKEACALDTVGWVQRHRKMLRHCPSKRK

How the values were obtained:
[1] = AP8ii peptide stability in human serum by analytic HPLC; type: in vitro ADME; conditions: 37 °C
Protocol: Analytic HPLC measurements were conducted in an Agilent 1260 Infinity II Liquid Chromatography system, equipped with a Polaris C18 column and a UV–Vis detector. The samples were analyzed with a mobile phase of MilliQ (solvent A) and acetonitrile (solvent B), both containing 0.1% v/v of formic acid, using a 1 mL/min flow rate within a run of 22 min. The gradient ramp was from 1% solvent B up to 60% solvent B in 15 min, then from 60% solvent B to 99% solvent in 5 min, finally 2 min at 99% of solvent B. Each injection used 50 μL, out of the 150 μL in the vial. Detection was performed at λ = 280 nm. Integration of the signals (e.g., peak area) in the chromatogram was performed using OpenLab CDS (data analysis software).
An adapted protocol based on[43] was followed for analysis. In a vial, 475 μL of 1 mmol/L peptide solution was mixed with 50 μL of human serum (making 0.95 mmol/L peptide in 10 vol% serum). The sample was incubated at 37 °C for increasing time. At 0, 1, 2, 4 and 24 h, an aliquot of 125 μL was taken from the vial, quenched with 50 μL of 10% TFA solution in MilliQ and centrifuged for 1 min at 13,000 rpm. Then 150 μL of the supernatant was taken for analysis. Control samples containing only peptide (e.g., without serum) and only human serum (e.g., without peptide) were included. All measurements were conducted in duplicates. Data of peak absolute area were expressed as mean ± standard deviation (SD).

RAW264.7 macrophages = assay: Alamar Blue cell viability assay, RAW264.7; type: cell-based, mouse; conditions: 10 μmol/L, 24 h, with or without LPS/IFNγ; three independent experiments
Protocol: To assess the effects of AP8ii on the cell viability, cells were plated in 24-well plates, cultured overnight and incubated with AP8ii or R243 (10 μmol/L) with or without 100 ng/mL LPS and 10 ng/mL IFNγ (for 24 h, cell viability assays were performed using Alamar Blue reagent (Invitrogen, Carlsbad, CA, USA) as per manufacturer's instructions. The results are represented as% cell viability normalized to untreated control cells (at 100%). All measurements were performed in triplicates in three independent experiments.

[2] = system: C57BL/6 mice with CCl4-induced acute liver injury; assay: CCl4-induced acute liver injury mouse model; type: in vivo; conditions: 1 μmol/kg twice daily, 2 days after CCl4
Protocol: All the animal experiments were carried out according to the ethical guidelines for the Care and Use of Laboratory Animals (Utrecht University, The Netherlands). CCl4 was prepared in olive oil ([…], 63.76 mg/mL) and AP8ii (1 μmol/kg) and R243 (1 μmol/kg) were prepared in hydroxypropyl-β-cyclodextrin (10%) and Kolliphor HS15 (5%) containing MilliQ water (85%). Male C57BL/6 mice (12 weeks old) received a single intraperitoneal injection (IP) of olive oil (healthy n = 9) or 0.2 mL/kg (318.8 mg/kg) CCl4 (vehicle n = 9, AP8 n = 9 and R243 n = 9) on Day 1. On Days 2 and 3, the CCl4-treated mice received vehicle, 1 μmol/kg AP8 (1.157 mg/kg) or 1 μmol/kg R243 (0.35744 mg/kg) twice daily. […] Total alanine aminotransferase (ALT) and aspartate transferase (AST) levels were determined in the plasma samples as per standard biochemical assays.
Cell suspension were prepared from freshly collected liver tissues using the TissueGrinder (TG, Fast Forward Discoveries GmbH, Mannheim, Germany) as detailed earlier. […] Cells were washed 3 times, stained with rat anti-mouse fluorescent antibodies (CD45-APC, CD11b-PE and F4/80-PE/Cy7, 0.2 μg/100 μL, Biolegend) for 1 h, Hoechst 33,342 (10 μg/100 μL, Thermo Fisher) for 30 min, and analyzed within 7 days. […]

[3] = biological target: T1, CCR8 on LPS/IFNγ-activated RAW264.7 macrophages; assay: Competitive peptide binding study (co-incubation and pre-incubation)
Protocol: For competitive studies, the peptide binding protocol was used however competition with R243, CCL1 and anti-CCR8 antibody was performed. Two types of competitive studies were performed—co-incubation and pre-incubation where macrophages were either co-incubated with equimolar concentration of R243 (10 μmol/L), CCL1 (100 ng/mL) or anti-CCR8 antibody (5.0 μg/mL, Cat. No. MAB-8324, Novus biologicals, […], USA) and AP8ii (10 μmol/L), or preincubated with R243 (10 μmol/L), CCL1 (100 ng/mL) or anti-CCR8 antibody (5.0 μg/mL) for 2 h followed by addition of AP8ii (10 μmol/L) for an additional 4 h. Finally, images were captured at 10 ×, 20 × and 40 ×, and RhB intensity was analyzed using ImageJ software and normalized to the number of nuclei using DAPI.

| Molecule | remaining at 24 h, 0.95 mmol/L ([1]; 0.95 mmol/L peptide in 10 vol% human serum, 24 h, TFA quench, analytic HPLC C18, UV 280 nm, peak area, duplicates, read-out: peptide remained intact after 24 h of incubation) | half-life at 0.95 mmol/L ([1]; 0.95 mmol/L peptide in 10 vol% human serum, analytic HPLC UV 280 nm, read-out: t1/2 in human serum) | stability on exposure to serum (peak absolute area) ([1]; 10 vol% human serum, first 4 h, analytic HPLC UV 280 nm) | toxicity (Alamar blue-based metabolic assay) (RAW264.7 macrophages) | body weight during treatment [2] | AP8ii binding blocked, co-incubation study ([3]; competitor (R243 10 μmol/L, CCL1 100 ng/mL, anti-CCR8 antibody 5.0 μg/mL) co-incubated with RhB-labeled AP8ii 10 μmol/L 4 h) | AP8ii binding blocked, pre-incubation study ([3]; competitor (R243 10 μmol/L, CCL1 100 ng/mL, anti-CCR8 antibody 5.0 μg/mL) preincubated 2 h, then RhB-labeled AP8ii 10 μmol/L 4 h) |
| --- | --- | --- | --- | --- | --- | --- | --- |
| YEWRFYHG [AP8ii, Tyr-Glu-Trp-Arg-Phe-Tyr-His-Gly] | > 82% | > 24 h | remained stable during the first 4 h | no significant toxicity | increased |  |  |
| B1 |  |  |  |  |  | ~20% | ~30% |
